Data as given in patent US20020031816A1, “METHOD OF INHIBITION OF HUMAN GLYCOGEN PHOSPHORYLASE” (priority 1998, published 2002).

| Structure (SMILES) | melting point |
| --- | --- |
| CCN1C(=O)C(C(=O)Nc2cccc(C(=O)NC3CCCCC3)c2)c2cc(C(C)=O)ccc21 (stereo not drawn) [Preparation 2, 5-Acetyl-1-ethyl-2-oxo-2,3-dihydro-1H-indole-3-carboxylic acid (3-cyclohexylcarbamoyl-phenyl)-amide] | 180 °C (dec.) |
| CCN1C(=O)C(C(=O)Nc2cccc(C(=O)Nc3ccc(Cl)cc3)c2)c2cc(C(C)=O)ccc21 (stereo not drawn) [Preparation 3, 5-Acetyl-1-ethyl-2-oxo-2,3-dihydro-1H-indole-3-carboxylic acid [3-(4-chloro-phenylcarbamoyl)-phenyl]-amide] | 119 to 121 °C |
| CCN1C(=O)C(C(=O)Nc2cccc(C(=O)Nc3ccc(Br)cc3)c2)c2cc(C(C)=O)ccc21 (stereo not drawn) [Preparation 8, 5-Acetyl-1-ethyl-2-oxo-2,3-dihydro-1H-indole-3-carboxylic acid [3-(4-bromo-phenylcarbamoyl)-phenyl]-amide] | 117 to 120 °C |
| CCN1C(=O)C(C(=O)Nc2cccc(C(=O)Nc3ccc(I)cc3)c2)c2cc(C(C)=O)ccc21 (stereo not drawn) [Preparation 9, 5-Acetyl-1-ethyl-2-oxo-2,3-dihydro-1H-indole-3-carboxylic acid [3-(4-iodo-phenylcarbamoyl)-phenyl]-amide] | 205 to 210 °C |

Now from value to compound:

| melting point | Structure (SMILES) |
| --- | --- |
| 129 to 135 °C | CCN1C(=O)C(C(=O)Nc2cccc(C(=O)Nc3ccccc3)c2)c2cc(C(=O)c3ccccc3)ccc21 (stereo not drawn) [Preparation 10, 5-Benzoyl-1-ethyl-2-oxo-2,3-dihydro-1H-indole-3-carboxylic acid (3-phenylcarbamoyl-phenyl)-amide] |
| 178 to 179 °C | CC(=O)c1ccc2c(c1)C(C(=O)Nc1cccc(C(=O)Nc3ccccc3)c1)C(=O)N2C (stereo not drawn) [Preparation 12, 5-Acetyl-1-methyl-2-oxo-2,3-dihydro-1H-indole-3-carboxylic acid (3-phenylcarbamoyl-phenyl)-amide] |
